Results published in patent publication US4804676A, “Enkephalinase B inhibitors, their preparation, and pharmaceutical compositions containing the same” (Sankyo Company Limited, priority 1984, dated 1989).
Where two headings read alike, the source gives them in different places.

What was measured:
[1] = biological target: T1, enkephalinase B (Rattus norvegicus, UniProt O55096); assay: Inhibition of enkephalinase B, Ki by the method of Dixon (Tyr-Gly released from methionine-enkephalin, HPLC); type: biochemical; details: for Ki: enkephalinase B, pH 6.5, 37° C., methionine-enkephalin substrate, method of Dixon, read-out: Ki value (inhibition constant)
T1 construct: from tissue; host or cells: rat brain membrane, Triton X-100 solubilized, purified by DEAE chromatography, chromatofocusing and gel filtration
T1 sequence (O55096 2-738 limits assumed): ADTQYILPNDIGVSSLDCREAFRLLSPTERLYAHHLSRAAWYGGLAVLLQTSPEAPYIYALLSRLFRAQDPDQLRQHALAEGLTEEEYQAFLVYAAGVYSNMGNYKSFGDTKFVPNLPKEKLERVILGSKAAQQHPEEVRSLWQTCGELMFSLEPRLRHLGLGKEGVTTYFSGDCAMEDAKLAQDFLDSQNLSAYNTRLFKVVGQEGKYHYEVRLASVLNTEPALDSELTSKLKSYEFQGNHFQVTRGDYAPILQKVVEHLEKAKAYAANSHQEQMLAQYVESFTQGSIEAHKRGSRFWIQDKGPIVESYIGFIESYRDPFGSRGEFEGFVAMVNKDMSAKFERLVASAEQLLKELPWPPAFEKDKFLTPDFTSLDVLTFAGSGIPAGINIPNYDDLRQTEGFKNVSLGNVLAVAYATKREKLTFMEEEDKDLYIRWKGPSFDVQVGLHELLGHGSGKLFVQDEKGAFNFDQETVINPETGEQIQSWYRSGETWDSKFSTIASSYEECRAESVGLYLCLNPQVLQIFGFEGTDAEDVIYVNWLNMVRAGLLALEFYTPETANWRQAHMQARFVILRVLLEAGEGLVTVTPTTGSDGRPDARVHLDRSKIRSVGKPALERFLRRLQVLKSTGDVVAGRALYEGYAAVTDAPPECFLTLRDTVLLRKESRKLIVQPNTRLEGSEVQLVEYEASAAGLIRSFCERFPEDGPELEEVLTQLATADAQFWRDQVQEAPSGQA
Description: The presence of the desired substances, Propioxatins A and B, can be assessed quantitavely during the processes of cultivation and purification by measuring the enkephalinase B inhibition activity. To do this, methionine-enkephalin is incubated with an enkephalinase B solution containing the Propioxatin, and then the amount of the resulting product tyrosyl-glycine (Tyr-Gly) is estimated by chromatography (e.g. thin layer chromatography or high pressure liquid chromatography). A blank test without Propioxatin is also carried out, and the enkephalinase B inhibition constant is determined. The enkephalinase B solution used for this technique can be prepared from rat brain by generally-known enzyme purification methods. Since enkephalinase B exists in rat brain as a membrane-bound enzyme, it is released from the membrane and made soluble using a detergent such as Triton X-100. The solubilized enzyme is then subjected to a combination of purification processes such as ion-exchange chromatography in which various kinds of ion-exchangers having a diethylaminoethyl (DEAE) group can be used, gel filtration using a molecular sieve, or isoelectric fractionation to obtain the purified enkephalinase B. These methods are described in greater detail hereinafter in the Examples.
(§1) 100 g of rat brain was homogenized using 1 liter of 50 mM tris-HCl buffer (pH 7.7) and the homogenate was centrifuged at 50,000 G for 15 minutes to give a precipitate. The precipitate was washed three times and centrifuged as before. It was then suspended in 500 ml of the same buffer containing 1% of Triton X-100, and kept at 37° C. for 1 hour. The suspension was centrifuged at 100,000 G for 1 hour to give a crude enzyme solution of enkephalinase B as supernatant.
(§2) The thus obtained crude enzyme solution was dialyzed against a 5 mM sodium phosphate buffer (pH 7.0) and was applied for adsorption to a column (3.0×30 cm) of DEAE-Sephacel (produced by Pharmacia Co. Ltd.) previously equilibrated with the same buffer containing 1% Triton X-100 (solution A). The column was washed with solution A and eluted with 2.5 liters of solution A and with 2.5 liters of solution A which contains 0.4M sodium chloride by the linear concentration gradient method.
(§3) The obtained fraction of enkephalinase B was dialyzed against solution A, and was applied for adsorption to a column (1.6×27 cm) of DEAE-Toyopearl 670S (produced by Toyo Soda Kogyo K.K.) previously equilibrated with solution A. Elution was carried out using 500 ml of solution A and 500 ml of a solution of 0.4M sodium chloride dissolved in solution A by the linear concentration gradient method. […]

[2] = Solubility; type: physicochemical
[3] = biological target: T1, enkephalinase B; assay: Enkephalinase B inhibition IC50, method of Parker and Waud, substrate 0.1 mM methionine-enkephalin; type: biochemical
Description: as §1
as §2, with “method. […]” for “method.”
A mixture of 40 μl of 0.1M sodium phosphate buffer (pH 6.5), 10 μl of a Propioxatin A solution and 40 μl of an enkephalinase B solution was incubated at 37° C. for 5 minutes, then 10 μl of a 1 mM or 10 mM methionine-enkephalin solution were added, followed by stirring at 37° C. for 20 minutes. The reaction was then stopped by adding 10 μl of 2N hydrochloric acid to the reaction mixture, and the amount of tyrosyl-glycine (Tyr-Gly) produced (Vi) with respect to 20 μl of the reaction mixture was determined by high pressure liquid chromatography. Similarly, the amount of tyrosyl-glycine produced (V) in a blank test, in which no Propioxatin was contained and only a buffer was used, was measured. […]
By way of comparison, the enkephalinase B inhibition activity was also measured for the compound N-[3-(N-hydroxycarbamoyl)-2-benzylpropanoyl]alanine, which is a compound within formula (I) of the above-mentioned French patent specification No. 2 518 088 (Japanese laid-open application No. 58-150547). […]

[4] = tested on: rat; assay: Analgesic action by the Randall-Selitto method after administration into the cerebral ventricle; type: in vivo
Description: Propioxatin A (10 μg) and enkephalin (1 mg) were administered simultaneously into the cereberal ventricle of a rat and the analgesic action thereof was examined by the Randall-Selitto method (Randall, L. D. and Selitto, J. J.; Arch. Int. Pharmacodyn. 111, 409-419 (1957)). The same quantities of Propioxatinn A and enkephalin were also administered separately, as controls.

[5] = biological target: T1, enkephalinase B; assay: Enzymatic properties of purified enkephalinase B (Michaelis constant); type: biochemical; details: purified rat brain enkephalinase B
Description: as §1, §2, §3

[6] = enkephalin 1 mg, Propioxatin A 10 μg

SMILES | type of inhibition of enkephalinase B [1] | Ki [1] [nM] | Solubility in ethanol and acetone [2] | Solubility in ethyl acetate, chloroform, benzene and ether [2] | Solubility in water, methanol and dimethyl sulfoxide [2] | other results
CC(C)C[C@H](CC(=O)NO)C(=O)N1CCC[C@H]1C(=O)N[C@H](C(=O)O)C(C)C [Propioxatin B] | competitive inhibitor | 110 | slightly soluble | insoluble | Soluble | 
CCC[C@H](CC(=O)NO)C(=O)N1CCC[C@H]1C(=O)N[C@H](C(=O)O)C(C)C [Propioxatin A] | competitive inhibitor | 13 | slightly soluble | insoluble | Soluble | IC50 ([3]; enkephalinase B, substrate 0.1 mM methionine-enkephalin, read-out: IC50 (converted)): 29.9 nM; more active than the prior art compound ([3]; ratio to the compound of FR 2 518 088, enkephalinase B IC50): approximately 1,000; analgesic effect ([4]; Propioxatin A 10 μg injected alone): No appreciable analgesic effect; prolonging the analgesic action of enkephalin ([4]; Propioxatin A 10 μg with enkephalin 1 mg): significantly effective
CC(C)C[C@H](NC(=O)[C@H](Cc1ccccc1)NC(=O)CNC(=O)CNC(=O)[C@@H](N)Cc1ccc(O)cc1)C(=O)O [enkephalin] |  |  |  |  |  | time for analgesic effect to fall to 50% of its peak value [4, 6]: about 30 minutes; time of peak value of analgesic effect after injection [4, 6]: approximately 10 minutes
C[C@H](NC(=O)C(CC(=O)NO)Cc1ccccc1)C(=O)O (stereo partly drawn) [Compound of FR 2 518 088, N-[3-(N-hydroxycarbamoyl)-2-benzylpropanoyl]alanine, reference compound] |  |  |  |  |  | IC50 [3]: 44200 nM
CSCC[C@H](NC(=O)[C@H](Cc1ccccc1)NC(=O)CNC(=O)CNC(=O)[C@@H](N)Cc1ccc(O)cc1)C(=O)O [Methionine-enkephaline, Tyr-Gly-Gly-Phe-Met] |  |  |  |  |  | Km value relative to Methionine-enkephaline (Michaelis constant) [5]: 53 µM
